According to patent publication US12172988B2, “Anticancer and antifungal splice modulators” (priority 2021, dated 2024):
Read-outs that look alike come from different tables or passages of the source.

Columns and labels:
Assay type in all cases: cell-based, human
[1] = test system: HCT116 colorectal carcinoma cells; assay: MTS cell viability / cell growth inhibition assay; details: for GI50: Homo sapiens, HCT-116, 72 h
Protocol: With milligram quantities of 1a-1i at hand, we began our studies to evaluate the relative efficacy of each analogue using cell growth inhibition studies in HCT116 colorectal carcinoma cells. As reported in FIG. 3, GI50 values were collected for each analog after a 72 h treatment using the MTS cell viability assay (Table 12). Under these conditions, the natural FD-895 (1), 3S-FD-895 (1a) 17S-FD-895 (1d), 17-methoxy-FD-895 (1e) provided activities of <10 nM.
HCT-116 cells was cultured in McCoy's 5a (Life Technologies) supplemented with 10% fetal bovine serum (FBS), 2 mM L-glutamine, and 100 U mL^−1 of penicillin and 100 μg mL^−1 of streptomycin at 37° C. in an atmosphere of 5% CO2. Compounds were dissolved in DMSO (MilliporeSigma). Cells were treated with 1-1j in media with ≥0.5% DMSO for 4-72 h.
Studies were conducted in […] cell culture plates. HCT-116 plated at 5×10^3 cells/well were cultured for 24 h and then treated with analogs 1-1j for 4-72 h, then washed twice with 100 μL PBS. PBS (100 μL) was added to each well, followed by 20 μL of CellTiter Aqueous One Solution (Promega). After 2 h at 37° C., absorbance readings were taken at 490 nm (test wavelength) and 690 nm (reference wavelength). GI50 values were calculated in Prism (GraphPad) using greater 3 replicates.
(§1) Cells were treated with 1 or 1a-1j in media (McCoy's 5a (Life Technologies) supplemented with 10% FBS, 2 mM L-glutamine, and 100 U mL^−1 of penicillin and 100 μg mL^−1 of streptomycin 0.5% DMSO) for 4 h or 24 h. Untreated cells were considered were used as negative control. Total RNA was isolated using mirVana miRNA isolation kit (Life Technologies). A 1 μg sample of RNA was subjected to DNAseI from a TURBO DNA free kit (Life Technologies). The cDNA was prepared by using SuperScript III reverse transcriptase kit (Life Technologies). The amount of unspliced RNA for different genes was determined using Power SYBR Green PCR master mix (Applied Biosystems) by qPCR using specific primers for each gene. qPCR using 2.5 μM of each primer was performed on 5 ng of the obtained cDNA. qPCR conditions were as follows: 95° C. for 10 min for one cycle, then 95° C. for 10 min for one cycle, then 95° C. for 30 s, 55° C. for 60 s, 72° C. for 60 s, for 40 cycles using the MXPro. Quantification cycle (Cq) values were identified for each sample, and then RNA levels were calculated using 2-ΔΔCT method. GAPDH was used as a control for normalization. At least three replicates were conducted for each compound. Namely, all genes explored in this study were evaluated from the same cell cultures. Here, individual cultures were used for each compound explored and at least three replicates were used for each compound. While experimental variation occurred between the different compound treatments, the levels of the different intron retention, exon skipping or RNA expression were collected from the same cellular material. Statistics were calculated using a standard one-way ANOVA; p values were represented so that * signifies p<0.0001. HCT116 were treated with analogs 1-1j ranging from 0.1-5000 nM for 72 hours, then cell viability was measured using the MTS assay. GI50 values and confidence intervals were calculated using GraphPad (Table 12).

[2] = test system: DNAJB1; assay: qPCR splicing analysis, DNAJB1 intron retention; details: HCT116, 4 h, 20 times GI50, qPCR relative to GAPDH
Protocol: (§2) HCT116 tumor cells were treated with each analogue at 20 times the G150 value (Table 12) for 4 hours and then cellular RNA was isolated and purified for qPCR. Primers were designed to evaluate intron retention or exon skipping, direct responses to splice modulator treatment. Genes evaluated included those involved in splicing regulation (SF3A1, SF3A3, SF3B1, SF3B2), apoptosis (MCL-1L), protein folding (DNAJB1), and cell cycle regulation (AURKA, PLK-1) relative to the unspliced control GAPDH. For alternative splicing regulator (SF2), primers were designed to evaluate gene expression, which changes in response splice modulator treatment for SF2 relative to the unspliced control GAPDH. (−) denotes untreated cells.
as §2, with “analogues” for “each analogue”, “100 nM (light grey), 250 nM (grey), or 500 nM (black)” for “20 times the G150 value (Table 12)”, “24 h” for “4 hours”, “(MCL-1L), and” for “(MCL-1L),”, “(DNAJB1),” for “(DNAJB1), and cell cycle regulation (AURKA, PLK-1)”, “(—)” for “(−)”
(§3) Next, we turned our efforts to explore the ability of these analogues to modulate splicing. […] We treated cells for 4 h so that we could evaluate early changes in splicing activity, and then cellular RNA was isolated and purified for analyses by qPCR (FIG. 14). Most importantly, none of the concentrations tested led to significant changes in cell viability, ensuring that changes in gene expression were not due to cell death.
(§4) For these studies, we evaluated the expression of genes involved in splicing regulation (SF3A1, SF3A3, SF3B1, SF3B2), apoptosis (MCL-1L), protein folding (DNAJB1), and cell cycle regulation (AURKA, PLK-1) relative to the unspliced control GAPDH. Primers were designed to evaluate intron retention or exon skipping, direct responses to splice modulator treatment. The master splicing regulator alternative splicing factor (SF2) was also evaluated, with the primers for this gene designed to evaluate overall gene expression, which changes in response to splice modulator treatment.
(§5) From this 4 h study (FIG. 14), a small set of analogs (1, 1b, 1g, 1d, 1e, 1i and 1j) were selected to evaluate if effects on splicing when presented for a longer 24 h period. […] Using identical procedures as that used for 4 h, HCT116 cells were treated with three concentrations (100 nM, 250 nM and 500 nM) of each analog for 24 h. Multiple concentrations were used as a means to check further validate the use of the GI50 concentration in our prior study (FIG. 14). As before, none of the concentrations tested led to significant changes in cell viability over the 24-hour time window, ensuring that changes in gene expression were not due to cell death.
(§6) Cells were treated with 1 or 1a-1j in media (McCoy's 5a (Life Technologies) supplemented with 10% FBS, 2 mM L-glutamine, and 100 U mL^−1 of penicillin and 100 μg mL^−1 of streptomycin 0.5% DMSO) for 4 h or 24 h. Untreated cells were considered were used as negative control. Total RNA was isolated using mirVana miRNA isolation kit (Life Technologies). […]

[3] = test system: SF3A1; assay: qPCR splicing analysis, SF3A1 intron retention; details: HCT116, 4 h, 20 times GI50, qPCR relative to GAPDH
Protocol: as §2
as §2, with “analogues” for “each analogue”, “100 nM (light grey), 250 nM (grey), or 500 nM (black)” for “20 times the G150 value (Table 12)”, “24 h” for “4 hours”, “(MCL-1L), and” for “(MCL-1L),”, “(DNAJB1),” for “(DNAJB1), and cell cycle regulation (AURKA, PLK-1)”, “(—)” for “(−)”
as §3, §4, §5
as §6, with “Technologies). A 1 μg sample of RNA was subjected to DNAseI from a TURBO DNA free kit (Life Technologies). The cDNA was prepared by using SuperScript III reverse transcriptase kit (Life Technologies).” for “Technologies).”

[4] = test system: HCT116 tumor cells; assay: qPCR structure-splicing profile over the gene panel; details: HCT116, 24 h, 100, 250, 500 nM, compared to 1
Protocol: as §2, with “analogues” for “each analogue”, “100 nM (light grey), 250 nM (grey), or 500 nM (black)” for “20 times the G150 value (Table 12)”, “24 h” for “4 hours”, “(MCL-1L), and” for “(MCL-1L),”, “(DNAJB1),” for “(DNAJB1), and cell cycle regulation (AURKA, PLK-1)”, “(—)” for “(−)”
as §4, §5, §1

[5] = HCT116, 72 hours, MTS assay, 0.1-5000 nM, read-out: GI50 value

Structure (SMILES)	GI50 ([1]; read-out: GI50 value) [nM]	GI50 ([1]; read-out: GI50 value (text)) [nM]	GI50 [1, 5] [nM]	SF3A1 intron 6 retention (level of intron retention) [3]	also measured
CC[C@H](OC)[C@@H](C)[C@H]1O[C@@H]1[C@H](O)[C@H](C)/C=C/C=C(\C)[C@@H]1OC(=O)C[C@H](O)CC[C@@](C)(O)[C@@H](OC(C)=O)/C=C/[C@H]1C [Analog 1c, 10R,11R-FD-895]	36600	37000			
CC[C@H](OC)[C@@H](C)[C@H]1O[C@@H]1[C@H](OC)[C@H](C)/C=C/C=C(\C)[C@H]1OC(=O)C[C@H](O)CC[C@@](C)(O)[C@@H](OC(C)=O)/C=C/[C@@H]1C [Analog 1e, 17-methoxy-FD-895]			2.21	more effective than 1	cell growth inhibitory activity compared to FD-895 ([1]; HCT-116 cells): comparable cell growth inhibitor activity as 1; DNAJB1 intron 2 retention (level of intron retention) [2]: highest level of intron retention; splicing activity over the genes tested [4]: comparable or slightly reduced splice modulatory activity as 1
CC[C@H](OC)[C@@H](C)[C@H]1O[C@@H]1[C@@H](OC)[C@H](C)/C=C/C=C(\C)[C@H]1OC(=O)C[C@H](O)CC[C@@](C)(O)[C@@H](OC(C)=O)/C=C/[C@@H]1C [Analog 1f, 17-methoxy-17S-FD-895]			37.6	more effective than 1	fold loss in activity ([1]; HCT116 GI50, double modification (methylation and inversion at C17)): 10 fold; GI50 ([1]; HCT116, 72 h treatment, MTS cell viability assay, read-out: GI50 value): 38 nM
CC[C@H](OC)[C@@H](C)[C@H]1O[C@@H]1[C@@H](O)[C@H](C)/C=C/C=C(\C)[C@H]1OC(=O)C[C@H](O)CC[C@@](C)(O)[C@H](OC(C)=O)/C=C/[C@@H]1C [Analog 1h, 7R,17S-FD-895]	806	806			fold less effective compared to 1b ([1]; HCT116 GI50, compared to 1b): 1.8 fold; fold less effective compared to 1d ([1]; HCT116 GI50, compared to 1d): 380 fold
